Assay results as given in US7018989B2, “Chemical compounds” (University College Cardiff Consultants, LTD, priority 1995, dated 2006).
Read-outs that look alike come from different tables or passages of the source.

Assays:
HIV-2 [1] = experiment: Inhibition of HIV-2 in CEM cells (giant cell formation); format: cell-based; conditions: read-out: HIV2 CEM: EC50 for inhibition of HIV-2 in CEM cells
Method: (§1) Cells were infected with HIV-1 as previously described [Balzarini et al. AIDS (1991), 5, 21–28]. Briefly, 5×10^5 cells per milliliter were infected with HIV-1 or HIV-2 at 100 CCID50 (50% cell culture infective dose) per milliliter of cell suspension. Then 100 μL of the infected cell suspension was transferred to microtiter plate wells and mixed with 100 μL of the appropriate dilutions of the test compounds. After 4 days giant cell formation was recorded microscopically in the HIV-infected cell cultures [CEM], and after 5 days the number of viable cells was determined by trypan blue staining of the HIV-infected cell cultures [MT4].
(§2) The data columns are, in order: • HIV1 MT4: EC50 in μM for inhibition of HIV-1 in MT4 cells. • HIV2 MT4: EC50 in μM for inhibition of HIV-2 in MT4 cells. • CC50 MT4: CC50 in μM for toxicity to MT-4 cells. • HIV1 CEM: EC50 in μM for inhibition of HIV-1 in CEM cells. • HIV2 CEM: EC50 in μM for inhibition of HIV-2 in CEM cells. • HIV2 CEM-TK-: EC50 in μM for inhibition of HIV-2 in CEM/TK^− cells. • CC50 CEM: CC50 in μM for toxicity to CEM cells. • EC50 MSV: EC50 in μM for inhibition of MSV • MCC MSV: Minimum cytotoxic concentration in MSV assay

MSV = experiment: Inhibition of MSV (in vitro); format: cell-based, Moloney Sarcoma Virus
From the text: as §2

CEM cells = experiment: Toxicity to CEM cells; format: cell-based, human
Method: as §1, §2

HIV-1 = experiment: microbe, parasite or virus in culture; conditions: read-out: HIV1 CEM: EC50 for inhibition of HIV-1 in CEM cells
Method: as §1, §2

[2] = Minimum cytotoxic concentration in MSV assay; format: cell-based
From the text: as §2, with “CEM/TK^-” for “CEM/TK^−”, “[…]:” for “MSV • MCC MSV:”

HIV-2 [3] = experiment: Inhibition of HIV-2 in CEM/TK- cells; format: cell-based
Method: as §1, §2

III-B strain of HIV-1 = experiment: microbe, parasite or virus in culture; format: cell-based
Method: (§3) C8166 cells. Cells were grown in RPMI 1640 with 10% calf serum. 4×10^4 cells per microtiter plate well were mixed with 5-fold dilutions of compound prior to addition of 10 CCID50 units of III-B strain of HIV-1 and incubated for 5–7 days (Betbeder et al. Antiviral Chem. Chemother. 1, 241–247, 1990). Formation of syncytia was examined from 2 days post-infection. Culture fluid was collected at 5–7 days and gp120 antigen production measured by ELISA (Mahmood and Hay, J. Immunol. Meth., 151, 9–13, 1992). […] Cell viability of infected and uninfected cells were assessed by the MTT-Formazen method (Pauwels et al. J. Virol. Meth. 20, 309–321, 1988).
(§4) Each assay was carried out in duplicate, on at least two separate occasions, and data quoted are the average of each separate assay.

C8166 cells = experiment: Toxicity in C8166 cells (MTT-Formazen); format: cell-based; conditions: Table 3
Method: as §3, §4

[4] = Table 6, mean of two or more repeat experiments
[5] = Table 6, mean of two or more repeat experiments, read-out: HIV2 CEM-TK-: EC50 for inhibition of HIV-2 in CEM/TK^− cells
[6] = CEM/TK- cells, HIV-2, read-out: HIV2 CEM-TK-: EC50 for inhibition of HIV-2 in CEM/TK- cells

SMILES	EC50 (HIV-2 [1]; [4])	EC50 (MSV; Table 6)	CC50 (CEM cells; [4])	EC50 (HIV-1; [4])	MCC MSV: Minimum cytotoxic concentration in MSV assay ([2]; Table 6)	EC50 (HIV-2 [3]; [5])	EC50 (HIV-2 [1]; CEM cells, HIV-2)	EC50 (MSV; MSV)	CC50 (CEM cells; CEM cells)	EC50 (HIV-1; CEM cells, HIV-1)	MCC MSV: Minimum cytotoxic concentration in MSV assay ([2]; MSV assay)	EC50 (HIV-2 [3]; [6])	Selectivity CC50/EC50 × 10^3 (III-B strain of HIV-1)	EC50 (III-B strain of HIV-1; HIV1 in C8166 cells, Table 3, read-out: Activity EC50)	CC50 (C8166 cells)
COP(=O)(NC(C)C(=O)OCc1ccccc1)OCC1C=CC(n2cc(C)c(=O)[nH]c2=O)O1 (centres unmarked) [Compound 1135]	15 µM	> 100 µM	> 250 µM	10 µM	>100	17.5 µM	–	–	–	–	–	–	–	–	–
Cc1cn(C2C=CC(COP(=O)(O)NC(C)C(=O)OCc3ccccc3)O2)c(=O)[nH]c1=O (centres unmarked) [Compound 1137]	1.6 µM	15.7 µM	≥ 250 µM	0.95 µM	>100	8 µM	–	–	–	–	–	–	–	–	–
COC(=O)[C@@H](C)NP(=O)(OCC1C=CC(n2cc(C)c(=O)[nH]c2=O)O1)Oc1ccccc1 (some centres unmarked) [Compound 932]	2 µM	≥ 100 µM	> 250 µM	3 µM	>100	2.5 µM	–	–	–	–	–	–	–	–	–
Nc1ncnc2c1ncn2C1CCC(CO)O1 (centres unmarked) [Cpd 1069]	–	–	–	–	–	–	8 µM	24.3 µM	> 250 µM	4 µM	>100	17.5 µM	–	–	–
CCOC(=O)C(C)NP(=O)(OCC1C=CC(n2cc(C)c(=O)[nH]c2=O)O1)Oc1ccccc1 (centres unmarked) [Compound 951]	0.07 µM	25 µM	55 µM	0.1 µM	>100	–	–	–	–	–	–	–	–	–	–
Cc1cn(C2C=CC(COP(=O)(O)NC(CCC(=O)O)C(=O)O)O2)c(=O)[nH]c1=O (centres unmarked) [Compound 1083]	5.5 µM	54.6 µM	≥ 250 µM	8.5 µM	>100	> 250 µM	–	–	–	–	–	–	–	–	–
COC(=O)CC(NP(=O)(OCC1C=CC(n2cc(C)c(=O)[nH]c2=O)O1)Oc1ccccc1)C(=O)OC (centres unmarked) [Compound 1078]	0.65 µM	31.4 µM	209 µM	0.55 µM	>100	0.33 µM	–	–	–	–	–	–	–	–	–
COC(=O)C(C)NP(=O)(OCC1C=CC(n2cc(C)c(=O)[nH]c2=O)O1)Oc1ccc(F)cc1 (centres unmarked) [Compound 327, 2′,3′-dideoxy-2′,3′-didehydrothymidine 5′-(p-fluorophenylmethoxyalaninyl) phosphoramidate]	–	–	–	–	–	–	–	–	–	–	–	–	62.5 × 10^3	0.0032 µM	200 µM
CCOC(=O)COP(=O)(OCC1C=CC(n2cc(C)c(=O)[nH]c2=O)O1)Oc1ccccc1 (centres unmarked) [Compound 981]	12.5 µM	> 100 µM	≥ 250 µM	12.5 µM	>100	150 µM	–	–	–	–	–	–	–	–	–
COC(=O)C(C)NP(=O)(OC[C@@H]1CC[C@H](n2cnc3c(N)ncnc32)O1)Oc1ccccc1 (some centres unmarked) [Compound 1093, 2′,3′-dideoxy Adenosine 5′-(phenylmethoxyalaninyl) phosphoramidate]	–	–	–	–	–	–	0.035 µM	1.95 µM	2.57 µM	0.016 µM	>20	0.055 µM	–	–	–
CSCC[C@H](NP(=O)(O)OC[C@@H]1C=C[C@H](n2cc(C)c(=O)[nH]c2=O)O1)C(=O)O [Compound 1156, 2′,3′-dideoxy-2′,3′-didehydrothymidine 5′-(methioninyl phosphate)]	0.7 µM	16.2 µM	> 250 µM	1.27 µM	>100	50 µM	–	–	–	–	–	–	–	–	–
